Measured values published in patent US20230063100A1, “VETERINARY ANTI-PROLACTIN COMPOSITION FOR RUMINANTS USED BY INTRAMAMMARY ADMINISTRATION” (Ceva Santé Animale, priority 2020, published 2023).

Legend:
[1] = Pharmacokinetics of cabergoline in plasma after IM administration, 5.6 mg/cow (comparative study); format: in vivo; conditions: bovine, n=6, plasma
[2] = tested on: dairy cow; test: Previous IM dose-effect study of cabergoline on milk production reduction (comparative); format: in vivo; conditions: extrapolation of the dose-effect relationship to an IM dose of 7.5 μg/kg
Source text: The obtained results are the following:

[3] = tested on: Prim'holstein lactating cows; test: Cabergoline effect by intramammary (IMM) route on milk production, milking continuation context (Example 1); format: in vivo; conditions: IMM 1.34 mg/quarter in all 4 quarters (5.4 mg/cow, ~7.5 μg/kg) after evening milking D4; n=5; printed as minus 6 L
Protocol: The cabergoline composition is a solution comprising cabergoline with dimethyl sulfoxide and medium-chain triglycerides, as excipients.
5 Prim'holstein lactating cows were included in the study, with the following characteristics: • Multiparous: parity 2 to 4 • Daily milk yield (L): 17.4+/−2.8 • Days in milk (d): 251+/−51 • Body weight (kg): 686+/−29
Cabergoline was administered as an oily solution as described above, with an intramammary cannula inserted into the teat canal and fitted to the tip of a syringe containing the solution. A volume of 10 mL was directly deposited into the udder cistern of each quarter.
Cows were milked twice a day, morning and evening, at around 07 am and 05 pm respectively.
Milk production (morning milking) was measured during the days before (baseline) and after treatment.
The 5 cows were treated with a dose 1.34 mg/quarter in all 4 quarters (total dose 5.4 mg/cow, corresponding to ˜7.5 μg/kg when expressed according to kg body weight, after evening milking (D4), i.e. 15-20 minutes after the end of milking.

[4] = tested on: dairy cow; test: Delta ITP at dry-off, IM study with the same total dose (comparative); format: in vivo; conditions: same total dose by IM route, n=130
[5] = Blood calcium concentration after IMM cabergoline at dry-off (Example 2.3); format: in vivo, cow
Source text: (§1) 10 lactating cows (9 Prim'holstein and 1 Brown Swiss) were included in this study.
No feed restriction was put in place within the 3 weeks preceding the D0 dry-off and after. Animal had free access to water and hay throughout the study. Each cow was given 7 kg/day of an antibiotic free concentrate feed for lactating cow until D0 dry off. After dry-off each cow was given 7 kg/day of an antibiotic free concentrate for growing cattle.

[6] = Pharmacokinetics of cabergoline in plasma after IMM administration (Example 2.2); format: in vivo, cow; conditions: female, Prim'holstein and Brown Swiss, bovine, 5.4 mg/udder, n=5, plasma
Source text: as §1

[7] = tested on: dairy cow; test: Field-controlled study (n=106), IM route, decrease of milk production; format: in vivo
Protocol: Extrapolation of the dose-effect relationship, with an IM dose of 7.5 μg/kg gave a predicted effect on milk production reduction of −43%.

[8] = Blood calcium concentration after IM cabergoline 5.6 mg/cow (previous studies); format: in vivo; conditions: versus negative control group
Protocol: Said studies were conducted in comparison versus a negative control group, and blood calcium decrease was monitored and well identified: A calcium decrease was observed as soon as 2 to 3 hours post-treatment, maximal between 6 and 12 hours and return to normal after 24 hours.
It is important to note that, in the study of example 2, the benefit regarding a less decrease of blood calcium concentration was obtained, despite a less quantity of calcium supplied by food, when compared to the IM studies 1 and 2. In these last 2 IM studies, 150 g of calcium/day/cow was provided through a total or partial mixed ration, whereas in the IMM study of example 2 only 50 g of calcium was provided via the concentrate (7 kg/day/cow at 0.7% of Ca) and a remaining part via the hay given ad libidum. Although the exact quantity of Ca provided by the hay was unknown, it was surely less than in the 2 IM studies, because, • i) the content of calcium in the hay is generally lower than concentrates, usually around 0.3% • ii) the actual hay dry matter intake could be estimated around 13 to 15 kg for the cows included in example 2

[9] = tested on: dairy cow; test: Inter-teat perimeter (ITP, udder engorgement) at dry-off, IMM study (Example 2); format: in vivo
Protocol: 10 lactating cows (9 Prim'holstein and 1 Brown Swiss) were included in this study. […] Animal had free access to water and hay throughout the study. Each cow was given 7 kg/day of an antibiotic free concentrate feed for lactating cow until D0 dry off. After dry-off each cow was given 7 kg/day of an antibiotic free concentrate for growing cattle. The composition of concentrate is given hereafter: At D0 dry-off, an abrupt milking cessation was performed. The inter-teat perimeter (ITP) was considered as a proxy of udder volume and engorgement, and was measured before treatment udder, both before and after milking, and then evenly after treatment until 9 days post-treatment.

Compound `C=CCN1C[C@H](C(=O)N(CCCN(C)C)C(=O)NCC)C[C@@H]2c3cccc4[nH]cc(c34)C[C@H]21` [cabergoline, N-[3-(dimethylamino)propyl]-N-[(ethylamino)carbonyl]-6-(2-propenyl)-8g-ergoline-8-carboxamide] has an AUC ([1]; read-out: AUCo-inf, mean (sd)) of 2.49 ng·h/mL, a Cmax ([1]; read-out: Cmax, mean (sd)) of 0.15 ng/mL and an MRT ([1]; read-out: MRT, mean (sd)) of 22.7 h. For the same compound, the Tmax ([1]; read-out: Tmax, mean (sd)) was 3 h, the “predicted effect on milk production reduction” value [2] was −43% and the “drop of milk production at the next morning milking (D5), mean” value [3] was 6 L. The “Mean ΔITP at +24 h after treatment” value [4] was 9.2 cm, the “decrease of blood calcium concentration in comparison with control cows, mean” value ([5]; IMM 1.34 mg/quarter in all 4 quarters, +6 hours time point only) was -0.2 mmol/L and the “blood calcium concentration change at other time points” value ([5]; IMM, +3 h, +12 h, +24 h and onward) was “No decrease”. For the same compound, the AUC ([6]; read-out: AUCo-inf, mean (sd)) was 4.75 ng·h/mL, the Cmax ([6]; read-out: Cmax, mean (sd)) was 0.114 ng/mL and the MRT ([6]; read-out: MRT, mean (sd)) was 36.3 h. The Tmax ([6]; read-out: Tmax, mean (sd)) was 8.4 h, the “decrease of milk production, treated against negative controlled cows” value [7] was “around −40%” and the “time of return of blood calcium to normal” value [8] was > 24 h. For the same compound, the “ITP of treated cows versus control after dry-off” value ([9]; IMM 1.34 mg/quarter in all 4 quarters, first 48 hours after treatment, FIG. 2) was “increased less than control”, the “Mean ΔITP at +24 h after treatment” value ([9]; IMM study, 1.34 mg/quarter in all 4 quarters at D0 dry-off, n=5) was 8.3 cm and the “Mean ΔITP before/after milking, before treatment” value ([9]; IMM study, cabergoline group n=5, baseline before treatment) was 13.1 cm.
